Experimental data taken from patent US20220213436A1, “BRAIN ORGANOID MACHINE INTERFACE” (The Regents of the University of California, priority 2019, published 2022).

Test system: cortical organoids
Test: Pharmacological manipulation of cortical organoid network activity recorded by multi-electrode array (MEA)
Format: cell-based, human
Conditions: for number of bursts / burst activity / synchronous activity / synchrony indexes: 8-month-old organoids, recording 15 min after addition, 20 μM AP5, 20 μM CNQX, 50 μM muscimol, 25 μM baclofen, 10 μM bicuculline

Structure (SMILES)	number of bursts / burst activity	synchronous activity / synchrony indexes	neuronal electrical activity
NC(CCCP(=O)(O)O)C(=O)O (stereo not drawn) [AP5]	significantly reducing	extinction	
N#Cc1cc2[nH]c(=O)c(=O)[nH]c2cc1[N+](=O)[O-] [CNQX]	significantly reducing	extinction	
NCC(CC(=O)O)c1ccc(Cl)cc1 (stereo not drawn) [baclofen]	significantly reducing	extinction	
NCc1cc(=O)[nH]o1 [muscimol]	significantly reducing	extinction	
NC1=N[C@H](O)[C@H]2[C@H]3O[C@]4(O)O[C@@H]([C@@H](O)[C@@]2(N1)[C@@H]4O)[C@]3(O)CO [tetrodotoxin]			blocked
